Measured values reported in patent publication US20080115236A1, “CBG gene as a genetic marker of hypercortisolism and associated pathologies” (Institut National de la Recherche Agronomique (INRA), a …, priority 2001, published 2008).
Read-outs that look alike come from different tables or passages of the source.

Target: T1, CBG (corticosteroid-binding globulin, transcortin) (Sus scrofa, UniProt Q9GK37)
T1 construct: quantity of cortisol specifically fixed to the glycoproteins adsorbed on the gel; from tissue; host or cells: pig blood plasma (Large White and Meishan, n = 12 each)
T1 sequence (Q9GK37 23-406): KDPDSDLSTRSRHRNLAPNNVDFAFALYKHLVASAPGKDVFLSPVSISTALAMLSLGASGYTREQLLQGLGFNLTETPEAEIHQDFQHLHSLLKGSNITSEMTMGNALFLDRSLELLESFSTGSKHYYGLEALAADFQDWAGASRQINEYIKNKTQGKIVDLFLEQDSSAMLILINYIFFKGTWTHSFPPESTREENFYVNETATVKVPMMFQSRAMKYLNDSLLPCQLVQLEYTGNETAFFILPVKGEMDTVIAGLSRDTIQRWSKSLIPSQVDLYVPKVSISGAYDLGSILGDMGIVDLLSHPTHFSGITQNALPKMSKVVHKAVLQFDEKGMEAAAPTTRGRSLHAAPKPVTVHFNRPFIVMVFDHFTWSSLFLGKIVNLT
Experiment: solid phase fixation (radiobinding) test of cortisol binding to plasma CBG, Concavalin A-Sepharose, Scatchard analysis
Parameters: species or system pig
Settings: n = 12, plasma CBG, 4° C., read-out: Kd (affinity of CBG for cortisol)
Experimental: The binding capacity of CBG and its affinity for cortisol were measured at 4° C. by a solid phase fixation test using a Concavalin A-Sepharose column (Pugeat et al., 1984). The association equilibrium constant (Ka) and the capacity of CBG for cortisol were calculated by a Scatchard analysis using “bound” as the quantity of cortisol specifically fixed to the glycoproteins adsorbed on the gel and “free” as the concentration of cortisol in the aqueous phase.
At the protein level, the capacity of binding to cortisol and the affinity constant of CBG were compared between the LW and Meishan pigs by radiobinding studies. No difference in affinity was found between the two breeds of pigs.

Kd (Large White pigs): 0.38 ± 0.05 nM | Kd (Meishan pigs): 0.46 ± 0.05 nM
SMILES: C[C@]12CCC(=O)C=C1CC[C@@H]1[C@@H]2[C@@H](O)C[C@@]2(C)[C@H]1CC[C@]2(O)C(=O)CO [cortisol]
